# Test results taken from patent publication US10189845B2, “4,6-substituted-pyrazolo[1,5-a]pyrazines as janus kinase inhibitors” (ARRAY BIOPHARMA INC., priority 2014, dated 2019).
# Read-outs that look alike come from different tables or passages of the source.
# What was measured:
# Format in all cases: biochemical
# [1] = target: JAK3 (Homo sapiens (Human), UniProt P52333); assay: JAK3 Inhibition Assay (Example D, Omnia kinase fluorescence peptide substrate assay)
# Method in brief: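 Omnia Sox-peptide kinetic read (ex 360 nm, em 485 nm, every 50 s over 45 min) tracked phosphorylation of 10 μM Y7 peptide by 2 nM recombinant JAK3 at 1 mM ATP. Buffer: 25 mM HEPES pH 7.4, 10 mM MgCl2, 0.01% Triton X-100, 1 mM DTT, with 2% DMSO final.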
# [2] = target: Human Tyk2 kinase domain (Homo sapiens (Human), UniProt P29597); assay: Tyk2 Inhibition Assay (Example A, Omnia kinase fluorescence peptide substrate assay); details: TYK2 Enzyme IC50 1 mM ATP, averaged IC50 ranges
# Method in brief: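 IC50 values come from a 4-parameter logistic fit of percent-of-control data, with compounds at 2% final DMSO. Reactions held 1 nM His-tag-cleaved Tyk2 (aa 886–1187), 8 μM Omnia Y12 peptide and 1 mM ATP in pH 7.4 HEPES buffer with 10 mM MgCl2, Triton X-100 and DTT. Sox fluorescence (360/485 nm) was monitored kinetically over 45 min.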
# [3] = target: JAK2 (Homo sapiens (Human), UniProt O60674); assay: JAK2 Inhibition Assay (Example C, Omnia kinase fluorescence peptide substrate assay); details: JAK2 Enzyme IC50 1 mM ATP, averaged IC50 ranges
# Method in brief: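 Kinetic fluorescence read of Omnia Y7 peptide (10 μM) phosphorylation, ex 360/em 485 nm every 50 s over 45 min, by 4 nM JAK2 at 1 mM ATP. Buffer 25 mM HEPES pH 7.4, 10 mM MgCl2, 0.01% Triton X-100, 1 mM DTT; final DMSO 2%. Percent-of-control values fitted by 4-parameter logistic for IC50.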
# [4] = target: JAK1 (Homo sapiens (Human), UniProt P23458); assay: JAK1 Inhibition Assay (Example B, Omnia kinase fluorescence peptide substrate assay)
# Method in brief: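 Kinetic fluorescence read (360 nm excitation, 485 nm emission, every 50 s over 45 min) of Omnia Y12 peptide (8 μM) phosphorylation by 12.5 nM human JAK1 at 1 mM ATP. Buffer: HEPES pH 7.4, MgCl2, Triton X-100, DTT; 2% DMSO. IC50 = concentration giving 50 POC on logistic curve.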
# [5] = JAK1 Enzyme IC50 1 mM ATP, 1 mM ATP, averaged IC50 ranges
# Sequence of JAK3 (P52333 whole entry): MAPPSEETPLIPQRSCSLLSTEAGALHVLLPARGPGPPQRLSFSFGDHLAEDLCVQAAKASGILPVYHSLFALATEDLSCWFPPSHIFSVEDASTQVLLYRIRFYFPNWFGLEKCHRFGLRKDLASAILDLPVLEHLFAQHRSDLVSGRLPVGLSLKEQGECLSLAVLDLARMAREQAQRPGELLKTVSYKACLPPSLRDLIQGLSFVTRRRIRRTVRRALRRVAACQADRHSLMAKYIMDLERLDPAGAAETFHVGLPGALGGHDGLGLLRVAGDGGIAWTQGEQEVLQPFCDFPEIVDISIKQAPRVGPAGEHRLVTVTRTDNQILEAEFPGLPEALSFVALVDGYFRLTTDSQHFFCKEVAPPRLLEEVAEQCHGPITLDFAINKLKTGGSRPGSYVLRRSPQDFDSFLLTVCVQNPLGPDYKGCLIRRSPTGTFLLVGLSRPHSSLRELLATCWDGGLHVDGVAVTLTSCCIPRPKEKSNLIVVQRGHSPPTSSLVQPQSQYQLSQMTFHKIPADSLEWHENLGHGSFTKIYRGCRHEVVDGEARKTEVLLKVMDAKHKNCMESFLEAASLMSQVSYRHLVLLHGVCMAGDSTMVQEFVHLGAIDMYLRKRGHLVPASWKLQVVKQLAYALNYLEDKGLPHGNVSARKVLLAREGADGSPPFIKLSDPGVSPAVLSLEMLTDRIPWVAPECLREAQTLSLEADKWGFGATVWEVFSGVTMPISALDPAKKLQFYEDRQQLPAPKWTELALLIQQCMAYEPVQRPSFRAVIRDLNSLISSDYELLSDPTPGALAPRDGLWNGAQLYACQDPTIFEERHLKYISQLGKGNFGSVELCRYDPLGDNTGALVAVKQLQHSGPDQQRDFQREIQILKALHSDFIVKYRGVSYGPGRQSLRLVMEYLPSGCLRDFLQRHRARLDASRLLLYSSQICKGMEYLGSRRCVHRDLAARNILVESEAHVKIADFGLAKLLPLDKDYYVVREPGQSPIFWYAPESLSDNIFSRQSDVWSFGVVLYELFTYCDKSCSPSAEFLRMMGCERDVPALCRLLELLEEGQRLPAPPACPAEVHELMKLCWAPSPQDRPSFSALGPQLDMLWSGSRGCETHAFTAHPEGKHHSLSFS
# Sequence of JAK1 (P23458 whole entry): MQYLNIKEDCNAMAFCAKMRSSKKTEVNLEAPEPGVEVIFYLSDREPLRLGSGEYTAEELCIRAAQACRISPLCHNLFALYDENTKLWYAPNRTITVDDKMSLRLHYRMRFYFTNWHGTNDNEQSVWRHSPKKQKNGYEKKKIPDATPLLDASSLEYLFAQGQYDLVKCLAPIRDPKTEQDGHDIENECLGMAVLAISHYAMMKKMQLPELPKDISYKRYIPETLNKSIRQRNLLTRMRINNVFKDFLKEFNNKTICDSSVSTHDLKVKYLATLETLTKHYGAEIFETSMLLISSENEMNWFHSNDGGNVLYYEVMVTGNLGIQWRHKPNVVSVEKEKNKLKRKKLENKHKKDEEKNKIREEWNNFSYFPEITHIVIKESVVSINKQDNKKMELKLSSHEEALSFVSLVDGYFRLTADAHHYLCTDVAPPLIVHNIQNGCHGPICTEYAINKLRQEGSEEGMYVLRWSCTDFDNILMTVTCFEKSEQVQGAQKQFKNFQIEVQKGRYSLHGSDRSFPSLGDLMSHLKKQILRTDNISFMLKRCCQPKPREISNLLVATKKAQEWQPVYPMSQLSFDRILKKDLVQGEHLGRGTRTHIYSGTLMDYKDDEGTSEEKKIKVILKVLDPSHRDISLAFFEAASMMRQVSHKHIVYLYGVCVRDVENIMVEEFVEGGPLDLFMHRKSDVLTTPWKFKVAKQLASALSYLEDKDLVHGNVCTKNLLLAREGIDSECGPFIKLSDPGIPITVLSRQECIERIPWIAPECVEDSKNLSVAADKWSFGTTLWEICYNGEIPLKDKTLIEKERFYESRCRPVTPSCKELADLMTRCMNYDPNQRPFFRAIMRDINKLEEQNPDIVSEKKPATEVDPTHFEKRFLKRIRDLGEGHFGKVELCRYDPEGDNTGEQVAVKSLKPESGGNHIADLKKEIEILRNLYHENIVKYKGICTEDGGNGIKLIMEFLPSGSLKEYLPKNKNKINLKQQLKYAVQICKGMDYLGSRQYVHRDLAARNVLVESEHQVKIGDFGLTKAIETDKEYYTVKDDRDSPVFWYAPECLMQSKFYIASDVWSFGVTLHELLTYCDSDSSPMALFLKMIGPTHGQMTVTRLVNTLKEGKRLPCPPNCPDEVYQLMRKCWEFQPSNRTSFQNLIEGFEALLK
# Sequence of Human Tyk2 kinase domain (P29597 886-1187): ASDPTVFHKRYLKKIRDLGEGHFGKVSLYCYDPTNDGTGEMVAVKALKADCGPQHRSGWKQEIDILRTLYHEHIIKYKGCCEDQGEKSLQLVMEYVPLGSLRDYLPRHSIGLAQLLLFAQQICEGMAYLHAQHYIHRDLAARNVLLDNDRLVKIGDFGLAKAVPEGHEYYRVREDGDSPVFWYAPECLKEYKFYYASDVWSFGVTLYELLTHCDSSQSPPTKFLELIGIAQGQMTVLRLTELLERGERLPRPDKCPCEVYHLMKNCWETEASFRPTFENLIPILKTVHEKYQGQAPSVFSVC
# Sequence of JAK2 (O60674 whole entry): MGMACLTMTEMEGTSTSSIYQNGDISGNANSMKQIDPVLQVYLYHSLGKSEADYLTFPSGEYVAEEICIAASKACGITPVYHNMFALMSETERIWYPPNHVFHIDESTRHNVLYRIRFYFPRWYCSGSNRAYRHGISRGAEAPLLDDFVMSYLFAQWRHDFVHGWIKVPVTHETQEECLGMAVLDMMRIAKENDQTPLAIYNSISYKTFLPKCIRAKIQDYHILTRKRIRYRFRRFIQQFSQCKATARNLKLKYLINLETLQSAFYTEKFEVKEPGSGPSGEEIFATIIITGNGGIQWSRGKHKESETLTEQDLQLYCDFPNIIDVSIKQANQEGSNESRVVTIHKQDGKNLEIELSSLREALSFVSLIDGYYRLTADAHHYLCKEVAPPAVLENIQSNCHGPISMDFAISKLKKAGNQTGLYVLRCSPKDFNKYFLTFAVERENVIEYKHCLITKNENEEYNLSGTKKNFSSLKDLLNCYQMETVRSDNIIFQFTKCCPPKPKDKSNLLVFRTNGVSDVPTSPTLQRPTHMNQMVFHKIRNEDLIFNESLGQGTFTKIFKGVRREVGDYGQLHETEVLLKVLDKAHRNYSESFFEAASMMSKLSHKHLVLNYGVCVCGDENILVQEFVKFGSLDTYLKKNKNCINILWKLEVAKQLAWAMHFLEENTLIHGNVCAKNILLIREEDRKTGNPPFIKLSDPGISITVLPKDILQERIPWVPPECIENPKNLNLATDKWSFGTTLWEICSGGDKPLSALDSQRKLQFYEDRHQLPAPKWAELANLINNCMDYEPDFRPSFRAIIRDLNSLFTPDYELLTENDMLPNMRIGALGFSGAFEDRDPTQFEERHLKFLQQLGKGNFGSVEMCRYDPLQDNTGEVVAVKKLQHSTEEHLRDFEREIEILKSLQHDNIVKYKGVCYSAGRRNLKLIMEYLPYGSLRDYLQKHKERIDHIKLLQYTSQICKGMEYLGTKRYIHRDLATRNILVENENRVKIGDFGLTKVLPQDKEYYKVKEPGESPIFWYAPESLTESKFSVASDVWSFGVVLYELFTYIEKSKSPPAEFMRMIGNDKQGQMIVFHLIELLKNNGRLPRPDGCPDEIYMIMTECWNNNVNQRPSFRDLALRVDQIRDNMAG
IC50 [1] [nM],IC50 [2] [nM],IC50 [3] [nM],IC50 [4] [nM],"IC50 [4, 5] [nM]",Compound
1000 to 10000,10 to 100,10 to 100,1000 to 10000,–,"CCC(CC)n1cc(-c2nc(-c3cnn(CCN4CCOCC4)c3)cn3nccc23)cn1 [Example 3, 4-(2-(4-(4-(1-(pentan-3-yl)-1H-pyrazol-4-yl)pyrazolo[1,5-a]pyrazin-6-yl)-1H-pyrazol-1-yl)ethyl)morpholine]"
1000 to 10000,10 to 100,10 to 100,100 to 1000,–,"CCC(CC)n1cc(-c2nc(-c3cnn(CCN4CCNC(=O)C4)c3)cn3nccc23)cn1 [Example 144, 4-(2-(4-(4-(1-(pentan-3-yl)-1H-pyrazol-4-yl)pyrazolo[1,5-a]pyrazin-6-yl)-1H-pyrazol-1-yl)ethyl)piperazin-2-one]"
1000 to 10000,10 to 100,10 to 100,10 to 100,–,"CCC(CC)n1cc(-c2nc(-c3cnn(CC(=O)N4CCOCC4)c3)cn3nccc23)cn1 [Example 6, 1-morpholino-2-(4-(4-(1-(pentan-3-yl)-1H-pyrazol-4-yl)pyrazolo[1,5-a]pyrazin-6-yl)-1H-pyrazol-1-yl)ethanone]"
1000 to 10000,10 to 100,10 to 100,1000 to 10000,–,"CCC(CC)n1cc(-c2nc(-c3cnn(C4CN(C(=O)[C@H]5C[C@@H](O)C5)C4)c3)cn3nccc23)cn1 [Example 178, (cis-3-hydroxycyclobutyl)(3-(4-(4-(1-(pentan-3-yl)-1H-pyrazol-4-yl)pyrazolo[1,5-a]pyrazin-6-yl)-1H-pyrazol-1-yl)azetidin-1-yl)methanone]"
1000 to 10000,10 to 100,10 to 100,–,100 to 1000,"CCC(CC)n1cc(-c2nc(-c3cnn([C@@H]4CCC[C@H]4O)c3)cn3nccc23)cn1 (single isomer, unassigned) [Example 153]"
1000 to 10000,10 to 100,10 to 100,–,1000 to 10000,"CCC[C@@H](C)n1cc(-c2nc(-c3cnn(C[C@@H](O)CO)c3)cn3nccc23)cn1 [Example 73, (R)-3-(4-(4-(1-((R)-pentan-2-yl)-1H-pyrazol-4-yl)pyrazolo[1,5-a]pyrazin-6-yl)-1H-pyrazol-1-yl)propane-1,2-diol]"
1000 to 10000,100 to 1000,100 to 1000,–,1000 to 10000,"CC[C@@H](n1cc(-c2nc(-c3cnn(C[C@@H](O)CO)c3)cn3nccc23)cn1)C(C)(F)F (single isomer, unassigned) [Example 199]"
1000 to 10000,10 to 100,10 to 100,10 to 100,–,"CCC(CC)n1cc(-c2nc(-c3cnn(C4CN(C(=O)NC)C4)c3)cn3nccc23)cn1 [Example 39, N-methyl-3-(4-(4-(1-(pentan-3-yl)-1H-pyrazol-4-yl)pyrazolo[1,5-a]pyrazin-6-yl)-1H-pyrazol-1-yl)azetidine-1-carboxamide]"
1000 to 10000,100 to 1000,100 to 1000,–,1000 to 10000,"CC(C)C[C@@H](C)n1cc(-c2nc(-c3cnn(C[C@@H](O)CO)c3)cn3nccc23)cn1 [Example 77, (R)-3-(4-(4-(1-((R)-4-methylpentan-2-yl)-1H-pyrazol-4-yl)pyrazolo[1,5-a]pyrazin-6-yl)-1H-pyrazol-1-yl)propane-1,2-diol]"
1000 to 10000,10 to 100,100 to 1000,100 to 1000,–,"CCC(CC)n1cc(-c2nc(-c3cnn(CC(=O)NC(C)C)c3)cn3nccc23)cn1 [Example 97, N-isopropyl-2-(4-(4-(1-(pentan-3-yl)-1H-pyrazol-4-yl)pyrazolo[1,5-a]pyrazin-6-yl)-1H-pyrazol-1-yl)acetamide]"
1000 to 10000,100 to 1000,1000 to 10000,1000 to 10000,–,"Cn1cc(-c2cn3nccc3c(-c3cnn(C4CCCC4CO)c3)n2)cn1 (stereo not shown) [Example 51, (2-(4-(6-(1-methyl-1H-pyrazol-4-yl)pyrazolo[1,5-a]pyrazin-4-yl)-1H-pyrazol-1-yl)cyclopentyl)methanol]"
1000 to 10000,10 to 100,10 to 100,–,1000 to 10000,"CCC(CC)n1cc(-c2nc(-c3cnn(C[C@@H](O)CN4CC(OC)C4)c3)cn3nccc23)cn1 [Example 104, (S)-1-(3-methoxyazetidin-1-yl)-3-(4-(4-(1-(pentan-3-yl)-1H-pyrazol-4-yl)pyrazolo[1,5-a]pyrazin-6-yl)-1H-pyrazol-1-yl)propan-2-ol]"
1000 to 10000,10 to 100,10 to 100,–,1000 to 10000,"CCC(CC)n1cc(-c2nc(-c3cnn(C[C@H](O)CN4CC(OC)C4)c3)cn3nccc23)cn1 [Example 103, (R)-1-(3-methoxyazetidin-1-yl)-3-(4-(4-(1-(pentan-3-yl)-1H-pyrazol-4-yl)pyrazolo[1,5-a]pyrazin-6-yl)-1H-pyrazol-1-yl)propan-2-ol]"
1000 to 10000,10 to 100,10 to 100,–,100 to 1000,"CCC(CC)n1cc(-c2nc(-c3cnn(CC(O)CO)c3)cn3nccc23)cn1 (stereo not shown) [Example 58, 3-(4-(4-(1-(pentan-3-yl)-1H-pyrazol-4-yl)pyrazolo[1,5-a]pyrazin-6-yl)-1H-pyrazol-1-yl)propane-1,2-diol]"
1000 to 10000,1000 to 10000,100 to 1000,–,1000 to 10000,"CC1(C)CCC[C@H]1n1cc(-c2nc(-c3cnn(C[C@@H](O)CO)c3)cn3nccc23)cn1 (single isomer, unassigned) [Example 96]"
1000 to 10000,10 to 100,10 to 100,1000 to 10000,–,"CCC(CC)n1cc(-c2nc(-c3cnn(CC(C)(O)CO)c3)cn3nccc23)cn1 (stereo not shown) [Example 60, 2-methyl-3-(4-(4-(1-(pentan-3-yl)-1H-pyrazol-4-yl)pyrazolo[1,5-a]pyrazin-6-yl)-1H-pyrazol-1-yl)propane-1,2-diol]"
1000 to 10000,100 to 1000,100 to 1000,1000 to 10000,–,"OC[C@H](O)Cn1cc(-c2cn3nccc3c(-c3cnn(C(C4CC4)C4CC4)c3)n2)cn1 [Example 216, (R)-3-(4-(4-(1-(dicyclopropylmethyl)-1H-pyrazol-4-yl)pyrazolo[1,5-a]pyrazin-6-yl)-1H-pyrazol-1-yl)propane-1,2-diol]"
1000 to 10000,100 to 1000,100 to 1000,1000 to 10000,–,"CCC(CC(F)(F)F)n1cc(-c2nc(-c3cnn(C(CO)CO)c3)cn3nccc23)cn1 (single isomer, unassigned) [Example 212]"
1000 to 10000,10 to 100,10 to 100,100 to 1000,–,"CCC(CC)n1cc(-c2nc(-c3cnn([C@H]4C[C@H](C(N)=O)C4)c3)cn3nccc23)cn1 [Example 167, (1r,3r)-3-(4-(4-(1-(pentan-3-yl)-1H-pyrazol-4-yl)pyrazolo[1,5-a]pyrazin-6-yl)-1H-pyrazol-1-yl)cyclobutanecarboxamide]"
1000 to 10000,10 to 100,10 to 100,–,100 to 1000,"CCC(CC)n1cc(-c2nc(-c3cnn([C@@H](C)[C@@H](C)O)c3)cn3nccc23)cn1 (single isomer, unassigned) [Example 157]"
1000 to 10000,100 to 1000,100 to 1000,–,100 to 1000,"CCC[C@H](C)n1cc(-c2nc(-c3cnn(C[C@@H](O)CO)c3)cn3nccc23)cn1 [Example 72, (R)-3-(4-(4-(1-((S)-pentan-2-yl)-1H-pyrazol-4-yl)pyrazolo[1,5-a]pyrazin-6-yl)-1H-pyrazol-1-yl)propane-1,2-diol]"
1000 to 10000,100 to 1000,100 to 1000,1000 to 10000,–,"CC(C)n1cc(-c2nc(-c3cnn(C4CCNCC4)c3)cn3nccc23)cn1 [Example 26, 4-(1-isopropyl-1H-pyrazol-4-yl)-6-(1-(piperidin-4-yl)-1H-pyrazol-4-yl)pyrazolo[1,5 a]pyrazine]"
1000 to 10000,10 to 100,10 to 100,–,100 to 1000,"CCC(CC)n1cc(-c2nc(-c3cnn([C@H](C)[C@@H](C)O)c3)cn3nccc23)cn1 (single isomer, unassigned) [Example 156]"
100 to 1000,10 to 100,< 10,–,100 to 1000,"CC[C@@H]1CCC[C@@H]1n1cc(-c2nc(-c3cnn(C[C@@H](O)CO)c3)cn3nccc23)cn1 (single isomer, unassigned) [Example 207]"
1000 to 10000,10 to 100,10 to 100,10 to 100,–,"CC[C@H](C)n1cc(-c2nc(-c3cnn(C(CO)CO)c3)cn3nccc23)cn1 [Example 84, (S)-2-(4-(4-(1-(sec-butyl)-1H-pyrazol-4-yl)pyrazolo[1,5-a]pyrazin-6-yl)-1H-pyrazol-1-yl)propane-1,3-diol]"
